pIC50: −log10 of the molar value. Values joined by “and” are separate entries in the source; they are usually repeats but may differ in a detail not shown here. Equal values may be shown once. Where a SMILES comes first, the peptide text is derived from it. [ ]: non-standard residue; d: D form. Cit = NC(=O)NCCC[C@H](N)C(=O)O
Legend:
[1] = tested on: ACPA pool I (affinity purified human anti-CCP2 IgG); experiment: ACPA competition assay: peptide pre-incubated with ACPA, then anti-CCP2 ELISA (CCPlus); format: binding; conditions: for maximum ACPA blocking (inhibition of anti-CCP2 reactivity): ACPA pool I 1.2 μg/ml (8 nM IgG), peptide 0.016-320 nmol in 225 μl, 1 h room temperature before CCP2 ELISA, mean of 2-7 experiments; for pIC50: ACPA pool I 1.2 μg/ml, 1 h room temperature pre-incubation, mean ± SEM, n given per value (n = 2-6), GraphPad Prism, read-out: IC50 of ACPA blocking (relative IC50)
Description: (§1) ACPA were affinity purified as recently described. Two different ACPA pools were prepared for the competition assays: ACPA pool I, containing autoantibodies purified from 11 plasma or serum samples (plasma n = 4, sera n = 7); and ACPA pool II, containing 39 plasma or serum samples (plasma n = 38, serum n = 1). Before pooling, each purified ACPA sample was individually tested by in house ELISA for immunoreactivity to fibrinogen Cit573 and citrullinated fibrinogen 36-52 [24]. Anti-CCP2 reactivity was determined using the Immunoscan CCPlus® assay. All pooled samples were CCP2 positive.
(§2) ACPA pools I and II were used at a concentration of 1.2 μg/ml (8 nM IgG). The autoantibodies were incubated with the fibrinogen and fibrinogen-derived peptides at room temperature for one hour. The mole quantities of peptides tested were: 0.016, 0.16, 1.6, 16, 22, 49, 60, 80, 120, 160, 216, and 320 nmol in an incubation volume of 225 μl. ACPA blocking by the fibrinogen peptides was subsequently assessed by measuring the remaining anti-CCP2 reactivity. Cit573 and Cit591 were equally combined and co-tested for ACPA blocking. Arginine peptides (573, 591, 72, and 74) were used as negative controls in all assays.
(§3) To further explore the blocking potential of Cit573, a retrieval assay was performed, that is, the ability of the peptide to compete with already CCP2-bound ACPA was tested. ACPA pool I was added to the CCP2 plate and incubated for one hour at room temperature, followed by the addition of the peptides (citrulline and unmodified peptides) at mole quantities ranging from 16 to 320 nmol. ACPA pools incubated with no peptide were defined as positive control, giving the maximum values of anti-CCP2 reactivity. Arbitrary units were calculated according to the standard curve given by the ELISA kit. Each experiment had one standard curve. Mean values were calculated and results are expressed as a function of percentage of inhibition of ACPA from the peptide amount (nmol).
(§4) Results are presented as mean ± standard error (SEM) of values (two to seven experiments per ACPA pool), and were compared using the Student’s t-test for unpaired comparisons using GraphPad Prism 6 software (La Jolla, CA, USA). Median values were also calculated in order to consider non-Gaussian distributions. As the mean and median values were generally coincident, the Mann-Whitney U test was not selected for statistical analysis. P <0.05 was assumed to denote a significant difference. Relative IC50 values (IC50 definition according to International Union of Pharmacology Committee on Receptor Nomenclature and Drug Classification – ‘the molar concentration of an antagonist that reduces the response to an agonist by 50 %’ [25]) were also calculated using GraphPad Prism 6 software. Cutoffs for the ISAC system chip data were calculated as the 98th percentile reactivity among the 461 EIRA controls investigated in parallel to the 927 RA patients.

[2] = tested on: ACPA pool II (affinity purified human anti-CCP2 IgG); experiment: as above; format: binding; conditions: for maximum ACPA blocking (inhibition of anti-CCP2 reactivity): ACPA pool II 1.2 μg/ml (8 nM IgG), peptide 0.016-320 nmol in 225 μl, 1 h room temperature before CCP2 ELISA, mean of 2-7 experiments; for pIC50: ACPA pool II 1.2 μg/ml, 1 h room temperature pre-incubation, mean ± SEM, n given per value (n = 2-4), GraphPad Prism, read-out: IC50 of ACPA blocking (relative IC50)
Description: as §1, §2, §3, §4

[3] = tested on: sera from RA patients (EIRA cohort); experiment: Peptide microarray (ImmunoCAP ISAC), immune reactivity of sera against the fibrinogen peptides; format: binding, human; conditions: for positive immune reactivity among anti-CCP2-positive RA patients: 402 CCP2-positive RA sera; for positive immune reactivity among anti-CCP2-positive RA patients / positive immune reactivity among anti-CCP2-negative RA patients: cutoff 98th percentile of healthy controls; for positive immune reactivity among anti-CCP2-negative RA patients: 525 CCP2-negative RA sera; for diagnostic sensitivity among all 927 RA patients: share of sera positive, Arg control intensity subtracted, cutoff 98th percentile of 461 healthy controls (98 % specificity)
Description: Serum from 927 RA patients (newly diagnosed patients within 12 months of appearance of first symptoms; 402 CCP2 positive and 525 CCP2 negative) and 461 healthy controls from the Epidemiological Investigation of RA (EIRA) case-control cohort were collected. Control samples were randomly chosen from the Swedish population registry, matching for age, sex, and residential area. All serum and plasma samples were stored at −70 °C prior to analysis. All patients fulfilled the American College of Rheumatology-European League Against Rheumatism criteria for RA [20]. CCP2-positive RA individuals used for ACPA affinity purification were selected based on having high anti-CCP2 antibody levels (>300 AU/ml, Immunoscan CCPlus® assay, Euro-Diagnostica AB, Sweden). All patients gave written informed consent. This study was approved by the regional ethical committee at the Karolinska Institutet (96-174), and performed in accordance with the Declaration of Helsinki.
Peptide microarray was performed as previously described. Briefly, peptides (sequences in Table 1) were immobilized onto a chemically modified glass slide, sera from RA patients and healthy controls were applied into the reactions sites, and fluorescence intensity after incubation with anti-human IgG antibody was acquired in a laser scanner (LuxScan 10K, CapitalBio, Beijing, China). Final results for each citrullinated peptide were calculated by subtracting the intensity values of the corresponding arginine-containing control from the citrullinated peptide for all RA patients and controls. Cutoff values were determined as the 98th percentile of the healthy control responses. Microarray data are available in the ArrayExpress database under accession number [EMBL:E-MTAB-3606].
as §4

[4] = tested on: ACPA pool I bound to CCP2 plate; experiment: Retrieval assay: peptide competes with already CCP2-bound ACPA; format: binding, human; conditions: ACPA pool I bound to CCP2 plate 1 h room temperature, then peptide 16-320 nmol; data not shown
Description: as §3

| Compound | pIC50 [1] | pIC50 [2] | ACPA binding to the CCP2 ELISA plate reverted (retrieval) [4] [%] | maximum ACPA blocking (inhibition of anti-CCP2 reactivity) [1] [%] | maximum ACPA blocking (inhibition of anti-CCP2 reactivity) [2] | positive immune reactivity among anti-CCP2-positive RA patients [3] | positive immune reactivity among anti-CCP2-negative RA patients [3] | diagnostic sensitivity among all 927 RA patients [3] [%] | maximum ACPA blocking (inhibition of anti-CCP2 reactivity) ([1]; listed as cyclic form of the Cit573 peptide) |
| --- | --- | --- | --- | --- | --- | --- | --- | --- | --- |
| C[C@@H](O)[C@H](NC(=O)[C@H](CO)NC(=O)[C@H](CC(=O)O)NC(=O)CNC(=O)[C@H](CCCNC(N)=O)NC(=O)[C@H](CC(N)=O)NC(=O)[C@H](Cc1ccc(O)cc1)NC(=O)[C@H](CO)NC(=O)[C@@H](NC(=O)[C@H](CO)NC(=O)[C@H](CO)NC(=O)[C@@H](NC(=O)[C@H](Cc1ccccc1)NC(=O)[C@H](CCC(N)=O)NC(=O)[C@H](CCCCN)NC(=O)[C@@H](N)CO)[C@@H](C)O)[C@@H](C)O)C(=O)N[C@@H](Cc1ccccc1)C(=O)N[C@@H](CCC(=O)O)C(=O)N[C@@H](CO)C(=O)N[C@@H](CCCCN)C(=O)N[C@@H](CO)C(=O)O [Cit591] (H-SKQFTSSTSYN[Cit]GDSTFESKS-OH) | 3.71 | 3.39 | – | 63 | – | 15% and 14.7% | 6% and 6.1% | 9.8 | – |
| C[C@H](N)C(=O)N[C@@H](CCC(=O)O)C(=O)N[C@@H](Cc1ccccc1)C(=O)N1CCC[C@H]1C(=O)N[C@@H](CO)C(=O)N[C@@H](CCCNC(N)=O)C(=O)NCC(=O)N[C@@H](CCCCN)C(=O)N[C@@H](CO)C(=O)N[C@@H](CO)C(=O)N[C@@H](CO)C(=O)O [Cit573Lin2] (H-AEFPS[Cit]GKSSS-OH; N-terminus assumed) | 3.91 | 3.98 | – | 69 | 40% | – | – | – | – |

Stronger by pIC50 [1], values ahead:

| pIC50 [1] | pIC50 [2] | ACPA binding to the CCP2 ELISA plate reverted (retrieval) [4] [%] | Compound | maximum ACPA blocking (inhibition of anti-CCP2 reactivity) [1] [%] | maximum ACPA blocking (inhibition of anti-CCP2 reactivity) [2] | positive immune reactivity among anti-CCP2-positive RA patients [3] | positive immune reactivity among anti-CCP2-negative RA patients [3] | diagnostic sensitivity among all 927 RA patients [3] [%] | maximum ACPA blocking (inhibition of anti-CCP2 reactivity) ([1]; listed as cyclic form of the Cit573 peptide) |
| --- | --- | --- | --- | --- | --- | --- | --- | --- | --- |
| 4.29 | 3.73 | – | CC[C@H](C)[C@H](NC(=O)CN)C(=O)N[C@@H](C)C(=O)N[C@@H](CCC(=O)O)C(=O)N[C@@H](Cc1ccccc1)C(=O)N1CCC[C@H]1C(=O)N[C@@H](CO)C(=O)N[C@@H](CCCNC(N)=O)C(=O)NCC(=O)N[C@@H](CCCCN)C(=O)N[C@@H](CO)C(=O)N[C@@H](CO)C(=O)N[C@@H](CO)C(=O)N[C@@H](Cc1ccc(O)cc1)C(=O)N[C@@H](CO)C(=O)O [Cit573Lin1] (H-GIAEFPS[Cit]GKSSSYS-OH; N-terminus assumed) | 75 | 47% | – | – | – | – |
| 4.23 | 3.26 | 80 | CC[C@H](C)[C@H](NC(=O)CNC(=O)[C@@H]1CCCN1C(=O)[C@H](Cc1c[nH]cn1)NC(=O)[C@@H](N)Cc1c[nH]cn1)C(=O)N[C@@H](C)C(=O)N[C@@H](CCC(=O)O)C(=O)N[C@@H](Cc1ccccc1)C(=O)N1CCC[C@H]1C(=O)N[C@@H](CO)C(=O)N[C@@H](CCCNC(N)=O)C(=O)NCC(=O)N[C@@H](CCCCN)C(=O)N[C@@H](CO)C(=O)N[C@@H](CO)C(=O)N[C@@H](CO)C(=O)N[C@@H](Cc1ccc(O)cc1)C(=O)N[C@@H](CO)C(=O)N[C@@H](CCCCN)C(=O)N[C@@H](CCC(N)=O)C(=O)N[C@@H](Cc1ccccc1)C(=O)O [Cit573] (H-HHPGIAEFPS[Cit]GKSSSYSKQF-OH) | 84 | Approximately 50% | 65% and 65.4% | 5% and 5.5% | 31.5 | – |
| 4.55 | – | – | CC[C@H](C)[C@@H]1NC(=O)CNC(=O)[C@@H]2CCCN2C(=O)[C@H](Cc2c[nH]cn2)NC(=O)[C@H](Cc2c[nH]cn2)NC(=O)[C@H](CS)NC(=O)[C@H](Cc2ccccc2)NC(=O)[C@H](CCC(N)=O)NC(=O)[C@H](CCCCN)NC(=O)[C@H](CO)NC(=O)[C@H](Cc2ccc(O)cc2)NC(=O)[C@H](CO)NC(=O)[C@H](CO)NC(=O)[C@H](CO)NC(=O)[C@H](CCCCN)NC(=O)CNC(=O)[C@H](CCCNC(N)=O)NC(=O)[C@H](CO)NC(=O)[C@@H]2CCCN2C(=O)[C@H](Cc2ccccc2)NC(=O)[C@H](CCC(=O)O)NC(=O)[C@H](C)NC1=O [Cit573Cyc] (cyclo(CHHPGIAEFPS[Cit]GKSSSYSKQF)) | 92 | approximately 90% | – | – | – | approximately 90% |
